{
  "source": "patent US10570179B2",
  "about": "“Substituted urea depsipeptide analogs as activators of the CLPP endopeptidase” (priority 2016, dated 2020)",
  "key": {"[1]": {"assay": "Microsomal metabolic stability", "format": "in vitro ADME, human"}, "[2]": {"assay": "Plasma protein binding, rapid equilibrium dialysis", "format": "in vitro ADME, human", "settings": "10 μM", "summary_of_the_method": "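Compound spiked at 10 μM (0.1% DMSO) into human plasma, dialysed against DPBS pH 7.4 across 8 K MWCO RED membrane for 4 h at 37 °C with shaking. Both chambers quantified by LC-MS against warfarin internal standard; % free = buffer/plasma concentration ×100, % bound = 100 − % free.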"}, "Plasma stability assay": {"assay": "Plasma stability assay", "format": "in vitro ADME, mouse", "summary_of_the_method": "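Compounds at 10 μM final in human or mouse plasma, incubated at 37 °C and sampled at 0, 3, 24 and 48 h in triplicate. Reactions quenched with cold acetonitrile containing warfarin internal standard; parent measured by LC-MS. Half-life from least-squares first-order fit.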"}, "[3]": {"settings": "microsomal metabolic stability half-life, human liver microsomes"}, "[4]": {"settings": "plasma binding, % Bound, human plasma"}, "[5]": {"settings": "plasma stability half-life, mouse plasma, 37° C."}},
  "note": "Numbered stars: 1 amine (or outer) side, 2 acyl side, 3 side chain; on linkers, the order of the positions; unused ones are H or OH. Bridge positions count the residues as written; N and C are the ends. Square brackets hold non-standard residues; d marks the D form. Peptide text beside a SMILES is read from it. * marks the point of attachment. Phe(3-CF3) = N[C@@H](Cc1cccc(C(F)(F)F)c1)C(=O)O; Piperazine(2S-CO,4-Me) = CN1CCN[C@H](C(=O)O)C1; Phe(3,5-Me2) = Cc1cc(C)cc(C[C@H](N)C(=O)O)c1; Phe(3-Me) = Cc1cccc(C[C@H](N)C(=O)O)c1; NH(4-Cl-2-F-phenyl) = Fc1cc(Cl)ccc1N*; Pro(4R-Me) = C[C@H]1CN[C@H](C(=O)O)C1; Hyp = O=C(O)[C@@H]1C[C@@H](O)CN1; NH(4-Me-phenyl) = Cc1ccc(N*)cc1; aThr = C[C@H](O)[C@H](N)C(=O)O; Pip = O=C(O)[C@@H]1CCCCN1; X3 = c1cc2c(cc1N*)OCCO2; CO = O=C([*:1])[*:2]",
  "data": [
    {"compound": "Cc1ccc(NC(=O)N[C@@H](Cc2cccc(C)c2)C(=O)N[C@H]2COC(=O)[C@@H]3C[C@@H](C)CN3C(=O)[C@H](C)NC(=O)[C@@H]3CN(C)CCN3C(=O)[C@@H]3CCCN3C2=O)cc1", "note": "[Compound 15, (S)-3-(M-TOLYL)-2-(3-(P-TOLYL)UREIDO)-N-((6AS,12S,15AS,17R,21S,23AS)-2,17,21-TRIMETHYL-6,11,15,20,23-PENTAOXOOCTADECAHYDRO-2H,6H,11H,15H-PYRAZINO[2,1-I]DIPYRROLO[2,1-C:2′,1′-L][1]OXA[4,7,10,13]TETRAAZACYCLOHEXADECIN-12-YL)PROPANAMIDE] ({NH(4-Me-phenyl)-CO}-[Phe(3-Me)]SP[Piperazine(2S-CO,4-Me)]A[Pro(4R-Me)]; ester 2-C)", "values": [
      {"measurement": "Human", "setting": "[1]; [3]", "value": "0.67 ± 0.04", "unit": "h"},
      {"measurement": "Human", "setting": "[2]; [4]", "value": "95.2 ± 1.5", "unit": "%"},
      {"measurement": "Mouse", "setting": "Plasma stability assay; [5]", "value": "5.95 ± 0.6", "unit": "h"}
    ]},
    {"compound": "Cc1ccc(NC(=O)N[C@@H](Cc2cccc(C)c2)C(=O)N[C@@H]2C(=O)N3C[C@H](O)C[C@H]3C(=O)N3CCCC[C@H]3C(=O)N[C@@H](C)C(=O)N3C[C@H](C)C[C@H]3C(=O)O[C@H]2C)cc1", "note": "[Compound 26, (S)—N-((2R,6S,8AS,14AS,16R,20S,21S,23AS)-16-HYDROXY-2,6,21-TRIMETHYL-5,8,14,19,23-PENTAOXOOCTADECAHYDRO-1H,5H,14H,19H-PYRIDO[2,1-I]DIPYRROLO[2,1-C:2′,1′-L][1]OXA[4,7,10,13]TETRAAZACYCLOHEXADECIN-20-YL)-3-(M-TOLYL)-2-(3-(P-TOLYL)UREIDO)PROPANAMIDE] ({NH(4-Me-phenyl)-CO}-[Phe(3-Me)][aThr][Hyp][Pip]A[Pro(4R-Me)]; ester 2-C)", "values": [
      {"measurement": "Human", "setting": "[1]; [3]", "value": "2.66 ± 0.3", "unit": "h"},
      {"measurement": "Human", "setting": "[2]; [4]", "value": "98.8 ± 0.1", "unit": "%"},
      {"measurement": "Mouse", "setting": "Plasma stability assay; [5]", "value": ">50", "unit": "h"}
    ]},
    {"compound": "C[C@@H]1C[C@H]2C(=O)OC[C@H](NC(=O)[C@H](Cc3cccc(C(F)(F)F)c3)NC(=O)Nc3ccc(Cl)cc3F)C(=O)N3CCC[C@H]3C(=O)N3CCN(C)C[C@H]3C(=O)N[C@@H](C)C(=O)N2C1", "note": "[Compound 18, (S)-2-(3-(4-CHLORO-2-FLUOROPHENYL)UREIDO)-3-(3-(TRIFLUOROMETHYL)PHENYL)-N-((6AS,12S,15AS,17R,21S,23AS)-2,17,21-TRIMETHYL-6,11,15,20,23-PENTAOXOOCTADECAHYDRO-2H,6H,11H,15H-PYRAZINO[2,1-I]DIPYRROLO[2,1-C:2′,1′-L][1]OXA[4,7,10,13]TETRAAZACYCLOHEXADECIN-12-YL)PROPANAMIDE] ({NH(4-Cl-2-F-phenyl)-CO}-[Phe(3-CF3)]SP[Piperazine(2S-CO,4-Me)]A[Pro(4R-Me)]; ester 2-C)", "values": [
      {"measurement": "Human", "setting": "[1]; human, pH 7.4", "value": "0.75 ± 0.11", "unit": "h"},
      {"measurement": "Human", "setting": "[2]; human, 4 h, pH 7.4", "value": "99.0 ± 0.1", "unit": "%"},
      {"measurement": "Mouse", "setting": "Plasma stability assay; mouse, 10 μM", "value": 66.31, "unit": "h"}
    ]},
    {"compound": "Cc1cccc(C[C@H](NC(=O)Nc2ccc3c(c2)OCCO3)C(=O)N[C@@H]2C(=O)N3CCC[C@H]3C(=O)N3CCCC[C@H]3C(=O)N[C@@H](C)C(=O)N3C[C@H](C)C[C@H]3C(=O)O[C@H]2C)c1", "note": "[Compound 21, (S)-2-(3-(2,3-DIHYDROBENZO[B][1,4]DIOXIN-6-YL)UREIDO)-3-(M-TOLYL)-N-((2R,6S,8AS,14AS,20S,21S,23AS)-2,6,21-TRIMETHYL-5,8,14,19,23-PENTAOXOOCTADECAHYDRO-1H,5H,14H,19H-PYRIDO[2,1-I]DIPYRROLO[2,1-C:2′,1′-L][1]OXA[4,7,10,13]TETRAAZACYCLOHEXADECIN-20-YL)PROPANAMIDE] ({X3-CO}-[Phe(3-Me)][aThr]P[Pip]A[Pro(4R-Me)]; ester 2-C)", "values": [
      {"measurement": "Human", "setting": "[1]; human, pH 7.4", "value": "4.49 ± 0.68", "unit": "h"},
      {"measurement": "Human", "setting": "[2]; human, 4 h, pH 7.4", "value": "97.3 ± 0.1", "unit": "%"},
      {"measurement": "Mouse", "setting": "Plasma stability assay; mouse, 10 μM", "value": ">50", "unit": "h"}
    ]},
    {"compound": "Cc1cc(C)cc(C[C@H](NC(=O)Nc2ccc(Cl)cc2F)C(=O)N[C@@H]2C(=O)N3CCC[C@H]3C(=O)N3CCCC[C@H]3C(=O)N[C@@H](C)C(=O)N3C[C@H](C)C[C@H]3C(=O)O[C@H]2C)c1", "note": "[Compound 4, (S)-2-(3-(4-CHLORO-2-FLUOROPHENYL)UREIDO)-3-(3,5-DIMETHYLPHENYL)-N-((2R,6S,8AS,14AS,20S,21S,23AS)-2,6,21-TRIMETHYL-5,8,14,19,23-PENTAOXOOCTADECAHYDRO-1H,5H,14H,19H-PYRIDO[2,1-I]DIPYRROLO[2,1-C:2′,1′-L][1]OXA[4,7,10,13]TETRAAZACYCLOHEXADECIN-20-YL)PROPANAMIDE] ({NH(4-Cl-2-F-phenyl)-CO}-[Phe(3,5-Me2)][aThr]P[Pip]A[Pro(4R-Me)]; ester 2-C)", "values": [
      {"measurement": "Human", "setting": "[1]; human, pH 7.4", "value": "0.94 ± 0.09", "unit": "h"},
      {"measurement": "Human", "setting": "[2]; human, 4 h, pH 7.4", "value": "99.8 ± 0.2", "unit": "%"},
      {"measurement": "Mouse (hr)", "setting": "Plasma stability assay; mouse, 10 μM", "value": ">>48 hr"}
    ]},
    {"compound": "Cc1cccc(C[C@H](NC(=O)Nc2ccc(Cl)cc2F)C(=O)N[C@@H]2C(=O)N3C[C@H](O)C[C@H]3C(=O)N3CCCC[C@H]3C(=O)N[C@@H](C)C(=O)N3C[C@H](C)C[C@H]3C(=O)O[C@H]2C)c1", "note": "[Compound 6, (S)-2-(3-(4-CHLORO-2-FLUOROPHENYL)UREIDO)-N-((2R,6S,8AS,14AS,16R,20S,21S,23AS)-16-HYDROXY-2,6,21-TRIMETHYL-5,8,14,19,23-PENTAOXOOCTADECAHYDRO-1H,5H,14H,19H-PYRIDO[2,1-I]DIPYRROLO[2,1-C:2′,1′-L][1]OXA[4,7,10,13]TETRAAZACYCLOHEXADECIN-20-YL)-3-(M-TOLYL)PROPANAMIDE] ({NH(4-Cl-2-F-phenyl)-CO}-[Phe(3-Me)][aThr][Hyp][Pip]A[Pro(4R-Me)]; ester 2-C)", "values": [
      {"measurement": "Human", "setting": "[1]; human, pH 7.4", "value": "4.83 ± 1.5", "unit": "h"},
      {"measurement": "Human", "setting": "[2]; human, 4 h, pH 7.4", "value": "99.7 ± 0", "unit": "%"},
      {"measurement": "Mouse", "setting": "Plasma stability assay; mouse, 10 μM", "value": ">50", "unit": "h"}
    ]}
  ]
}
